Results on five compounds are retold here after patent publication US5206384A, “Actinonin derivatives and pharmaceutically acceptable salts thereof” (Zaidan Hojin Biseibutsu Kagaku Kai, priority 1990, dated 1993).

Experiment [1] concerns the target angiotensin-conversion enzyme (ACE) (Homo sapiens, UniProt P12821). As to the kind of experiment: ACE-inhibitory activity. Format: biochemical. As to conditions: for IC50: method of Analytical Biochemistry, 84, 361 (1978). How it is done:
Thus, we have tested the enzyme-inhibitory activities of some typical compounds of this invention against angiotensin-conversion enzyme (ACE) which participates in the control of blood-pressure in mammalian animals by converting angiotensin I, a peptide-type hormone in brain, into angiotensin II. The determination of ACE-inhibitory activity was carried out in accordance with the method described in "Analytical Biochemistry", 84, 361 (1978) and the activity was estimated in term of the concentration (mole concentration, M) of each compound tested at which the activity of the enzyme can be inhibited by 50% (IC50).

A further experiment has as its target enkephalinase (Homo sapiens, UniProt P08473). Nature of the experiment: Enkephalinase-inhibitory activity. Format: biochemical. As to conditions: for IC50: concentration which inhibits enzymatic activity of enkephalinase by 50%. The procedure:
IC50 concentrations (M concentration) of some typical compounds of this invention which can inhibit enzymatic activity of enkephalinase by 50% were measured.

A further experiment has as its system peptidases. As to conditions: Journal of Antibiotics, 38, 1629-1630 (1985); U.S. Pat. No. 4,663,342; cited from earlier work.

Chain of angiotensin-conversion enzyme (ACE) (P12821 30-1306, species assumed): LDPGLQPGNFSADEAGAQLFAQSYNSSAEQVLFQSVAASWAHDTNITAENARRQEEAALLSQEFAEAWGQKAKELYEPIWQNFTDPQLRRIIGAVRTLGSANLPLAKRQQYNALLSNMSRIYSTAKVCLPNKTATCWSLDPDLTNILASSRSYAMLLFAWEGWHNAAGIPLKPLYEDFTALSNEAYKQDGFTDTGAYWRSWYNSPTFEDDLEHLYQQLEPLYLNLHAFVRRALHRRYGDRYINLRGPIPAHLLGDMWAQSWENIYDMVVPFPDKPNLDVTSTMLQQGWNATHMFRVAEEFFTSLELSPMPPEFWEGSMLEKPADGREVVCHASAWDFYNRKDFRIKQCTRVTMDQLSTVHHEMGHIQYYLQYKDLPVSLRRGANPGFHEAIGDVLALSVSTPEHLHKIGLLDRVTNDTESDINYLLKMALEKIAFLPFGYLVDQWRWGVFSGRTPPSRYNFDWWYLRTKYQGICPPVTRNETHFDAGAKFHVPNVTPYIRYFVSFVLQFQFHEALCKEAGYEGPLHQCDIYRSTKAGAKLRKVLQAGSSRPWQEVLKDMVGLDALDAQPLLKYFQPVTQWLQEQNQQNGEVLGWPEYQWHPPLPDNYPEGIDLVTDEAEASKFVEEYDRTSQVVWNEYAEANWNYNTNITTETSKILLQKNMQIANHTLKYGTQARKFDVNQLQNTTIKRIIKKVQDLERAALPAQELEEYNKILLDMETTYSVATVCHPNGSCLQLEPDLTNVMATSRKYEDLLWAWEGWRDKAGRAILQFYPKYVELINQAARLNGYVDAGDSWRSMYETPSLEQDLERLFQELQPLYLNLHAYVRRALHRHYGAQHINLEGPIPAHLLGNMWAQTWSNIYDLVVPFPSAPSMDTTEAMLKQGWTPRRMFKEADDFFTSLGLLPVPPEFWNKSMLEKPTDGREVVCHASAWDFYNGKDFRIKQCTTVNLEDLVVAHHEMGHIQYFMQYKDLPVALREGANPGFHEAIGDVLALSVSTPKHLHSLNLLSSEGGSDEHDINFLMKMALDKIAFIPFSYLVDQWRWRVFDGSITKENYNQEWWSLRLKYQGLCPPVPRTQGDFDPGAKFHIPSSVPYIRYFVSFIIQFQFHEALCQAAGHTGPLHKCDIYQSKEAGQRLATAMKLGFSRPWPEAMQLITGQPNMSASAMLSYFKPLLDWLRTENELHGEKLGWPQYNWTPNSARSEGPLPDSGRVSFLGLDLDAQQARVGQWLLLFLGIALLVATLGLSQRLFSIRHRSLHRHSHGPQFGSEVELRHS
Chain of enkephalinase (P08473 whole entry, species assumed): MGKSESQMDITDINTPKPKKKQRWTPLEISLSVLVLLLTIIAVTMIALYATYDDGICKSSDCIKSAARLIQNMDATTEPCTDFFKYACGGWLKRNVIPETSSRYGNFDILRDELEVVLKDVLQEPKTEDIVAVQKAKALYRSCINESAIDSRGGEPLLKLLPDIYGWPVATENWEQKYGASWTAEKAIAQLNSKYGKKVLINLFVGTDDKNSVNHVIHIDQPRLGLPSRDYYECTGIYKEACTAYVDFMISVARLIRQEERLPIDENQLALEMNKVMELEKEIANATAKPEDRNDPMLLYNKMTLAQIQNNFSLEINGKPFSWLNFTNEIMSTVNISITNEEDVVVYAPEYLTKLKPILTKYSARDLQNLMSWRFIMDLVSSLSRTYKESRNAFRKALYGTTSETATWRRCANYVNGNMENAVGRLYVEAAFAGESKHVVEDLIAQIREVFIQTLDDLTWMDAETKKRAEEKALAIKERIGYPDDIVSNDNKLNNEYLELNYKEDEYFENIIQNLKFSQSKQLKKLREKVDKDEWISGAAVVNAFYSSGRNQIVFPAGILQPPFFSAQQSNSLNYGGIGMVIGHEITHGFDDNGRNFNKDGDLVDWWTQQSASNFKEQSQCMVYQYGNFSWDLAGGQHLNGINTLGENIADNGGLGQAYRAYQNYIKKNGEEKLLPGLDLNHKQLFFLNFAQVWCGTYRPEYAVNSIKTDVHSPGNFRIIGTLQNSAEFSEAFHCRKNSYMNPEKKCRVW

By IC50 is commonly meant the concentration that gives 50% inhibition. A higher IC50 goes with weaker potency. With `CCCCC[C@H](CC(=O)NOS(=O)(=O)O)C(=O)NC(C(=O)N1CCC[C@H]1COS(=O)(=O)O)C(C)C` (stereo in doubt) [Compound of formula (Ia), (2R)-2-(Sulfoxyaminocarbonylmethyl)heptanoyl-L-valyl-(2S)-2-(sulfoxymethyl)pyrrolidine], the IC50 came out at 92 µM in experiment [1] and 14 µM against enkephalinase.
As to `CCCCC[C@H](CC(=O)NO)C(=O)NC(C(=O)N1CCC[C@H]1C(=O)O)C(C)C` (stereo in doubt) [Compound of formula (Ib), (2R)-2-(Hydroxyaminocarbonylmethyl)heptanoyl-L-valyl-L-proline], the results for the IC50 (in experiment [1]; on enkephalinase) were 28 µM and 0.31 µM, respectively. Moreover, the “enkephalinase-inhibitory activity, times stronger than that of actinonin” value at enkephalinase (relative to actinonin as reference, from Table 2) is recorded as “more than 10 times”.
Turning to `CCCCC[C@H](CC(=O)NO)C(=O)NC(C(=O)N1CCC[C@H]1COS(=O)(=O)O)C(C)C` (stereo in doubt) [Compound of formula (Ig), (2R)-2-(Hydroxyaminocarbonylmethyl)heptanoyl-L-valyl-(2S)-2-(sulfoxymethyl)pyrrolidine], the concentration for half-maximal inhibition (IC50) in experiment [1] turned out to be 430 µM; against enkephalinase, 4.1 µM.
Consider `CCCCC[C@H](CC(=O)NO)C(=O)N[C@H](C(=O)N1CCC[C@H]1CO)C(C)C` [Actinonin, actinonin], for which, in experiment [1], the “inhibitory activities against angiotensin-converting enzymes (in words)” value is on record as “low levels of inhibitory activity” and half-maximal inhibition (IC50) was put at 590 µM. Besides, on enkephalinase, half-maximal inhibition (IC50) was put at 5.6 µM. Moreover, the “inhibits a wide variety of peptidases (in words)” value in the experiment with peptidases is on record as “inhibits a wide variety of peptidases”.
Turning to `CCCCC[C@H](CC(=O)NO)C(=O)N[C@H](C(=O)N1CCC[C@H]1C(=O)NO)C(C)C` [Compound of formula (Id), (2R)-2-(Hydroxyaminocarbonylmethyl)heptanoyl-L-valyl-L-proline.hydroxamide], the IC50 in experiment [1] was 0.53 µM; on enkephalinase, 1.2 µM.
